# Assay results reported in patent US20210300943A1, “OGA INHIBITOR COMPOUNDS” (Janssen Pharmaceutica NV, priority 2018, published 2021).
# How the values were obtained:
# [1] = molecular target: T1, OGA (Homo sapiens, UniProt O60502); test: OGA cellular assay (ICC detection of O-GlcNAcylated proteins in HEK293 cells inducible for P301L mutant human Tau); type: cell-based; details: for Emax: HEK293, HEK293 cells inducible for P301L mutant human Tau, maximal effect, Thiamet G 200 uM as maximum; for EC50: HEK293 cells inducible for P301L mutant human Tau, 6 hours incubation, read-out: Cellular hOGA, pEC50 (converted)
# T1 construct: endogenous in cells; host or cells: HEK293 cells inducible for P301L mutant human Tau (2N4R)
# T1 sequence (O60502 1-916): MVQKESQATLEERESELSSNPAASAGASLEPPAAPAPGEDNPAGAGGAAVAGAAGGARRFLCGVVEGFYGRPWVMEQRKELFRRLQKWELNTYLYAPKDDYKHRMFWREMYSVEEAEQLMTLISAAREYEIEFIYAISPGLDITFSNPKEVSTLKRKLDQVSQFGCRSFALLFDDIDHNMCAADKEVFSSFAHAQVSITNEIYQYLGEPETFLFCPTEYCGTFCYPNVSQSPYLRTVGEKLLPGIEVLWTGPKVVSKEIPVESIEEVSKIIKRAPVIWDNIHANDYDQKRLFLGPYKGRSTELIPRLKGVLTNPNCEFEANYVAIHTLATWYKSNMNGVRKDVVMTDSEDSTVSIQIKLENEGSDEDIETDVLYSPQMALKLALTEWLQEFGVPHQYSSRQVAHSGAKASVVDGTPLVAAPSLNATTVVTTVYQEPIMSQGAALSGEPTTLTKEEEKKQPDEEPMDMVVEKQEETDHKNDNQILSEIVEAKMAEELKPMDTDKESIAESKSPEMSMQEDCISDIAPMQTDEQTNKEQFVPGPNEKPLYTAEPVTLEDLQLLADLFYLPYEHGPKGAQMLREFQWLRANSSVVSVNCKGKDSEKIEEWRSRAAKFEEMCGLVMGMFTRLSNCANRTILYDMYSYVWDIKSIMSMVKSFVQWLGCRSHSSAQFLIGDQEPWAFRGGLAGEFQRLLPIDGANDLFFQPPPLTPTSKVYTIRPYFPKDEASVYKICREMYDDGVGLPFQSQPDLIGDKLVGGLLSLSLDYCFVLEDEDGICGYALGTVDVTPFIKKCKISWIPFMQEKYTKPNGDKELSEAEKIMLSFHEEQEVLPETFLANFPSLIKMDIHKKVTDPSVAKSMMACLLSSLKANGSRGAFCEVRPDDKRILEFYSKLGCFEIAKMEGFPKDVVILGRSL
# Description: HEK293 cells inducible for P301L mutant human Tau (isoform 2N4R) were established at Janssen. Thiamet-G was used for both plate validation (high control) and as reference compound (reference EC50 assay validation). OGA inhibition is evaluated through the immunocytochemical (ICC) detection of O-GlcNAcylated proteins by the use of a monoclonal antibody (CTD110.6; Cell Signaling, #9875) detecting 0-GlcNAcylated residues as previously described (Dorfmueller et al. 2010 Chemistry & biology, 17:1250). Inhibition of OGA will result in an increase of O-GlcNAcylated protein levels resulting in an increased signal in the experiment. Cell nuclei are stained with Hoechst to give a cell culture quality control and a rough estimate of immediate compounds toxicity, if any. ICC pictures are imaged with a Perkin Elmer Opera Phenix plate microscope and quantified with the provided software Perkin Elmer Harmony 4.1.
# Cells were propagated in DMEM high Glucose (Sigma, #D5796) following standard procedures. 2 days before the cell assay cells are split, counted and seeded in Poly-D-Lysine (PDL) coated 96-wells (Greiner, #655946) plate at a cell density of 12,000 cells per cm^2 (4,000 cells per well) in 100 μl of Assay Medium (Low Glucose medium is used to reduce basal levels of GlcNAcylation) (Park et al. 2014 The Journal of biological chemistry 289:13519). At the day of compound test medium from assay plates was removed and replenished with 90 μl of fresh Assay Medium. 10 μl of compounds at a 10 fold final concentration were added to the wells. Plates were centrifuged shortly before incubation in the cell incubator for 6 hours. DMSO concentration was set to 0.2%. Medium is discarded by applying vacuum. For staining of cells medium was removed and cells washed once with 100 μl D-PBS (Sigma, #D8537). From next step onwards unless other stated assay volume was always 50 μl and incubation was performed without agitation and at room temperature. Cells were fixed in 50 μl of a 4% paraformaldehyde (PFA, Alpha aesar, #043368) PBS solution for 15 minutes at room temperature. […] Before analysis samples were washed 2 times manually for 5 minutes in ICC base buffer.
# Imaging is performed using Perkin Elmer Phenix Opera using a water 20× objective and recording 9 fields per well. Intensity readout at 488 nm is used as a measure of O-GlcNAcylation level of total proteins in wells. To assess potential toxicity of compounds nuclei were counted using the Hoechst staining. IC50-values are calculated using parametric non-linear regression model fitting. As a maximum inhibition Thiamet G at a 200 uM concentration is present on each plate. In addition, a concentration response of Thiamet G is calculated on each plate.
# [2] = molecular target: T2, recombinant human Meningioma Expressed Antigen 5 (MGEA5), also referred to as O-GlcNAcase (OGA) (Homo sapiens, UniProt O60502); test: OGA biochemical assay (inhibition of FM-GlcNAc hydrolysis, fluorescence); details: for Emax: maximal effect, read-out: Enzymatic Emax (%); for IC50: read-out: Enzymatic hOGA, pIC50 (converted)
# T2 construct: Full length OGA enzyme was purchased at OnGene (cat #TP322411); purchased OnGene (so in the source)
# T2 sequence (O60502 1-916): T1 sequence (O60502 1-916)
# Excerpt: The assay is based on the inhibition of the hydrolysis of fluorescein mono-β-D-N-Acetyl-Glucosamine (FM-GlcNAc) (Mariappa et al. 2015, Biochem J 470:255) by the recombinant human Meningioma Expressed Antigen 5 (MGEA5), also referred to as O-GlcNAcase (OGA). The hydrolysis FM-GlcNAc (Marker Gene technologies, cat #M1485) results in the formation of β-D-N-glucosamineacetate and fluorescein. The fluorescence of the latter can be measured at excitation wavelength 485 nm and emission wavelength 538 nm. An increase in enzyme activity results in an increase in fluorescence signal. Full length OGA enzyme was purchased at OnGene (cat #TP322411). The enzyme was stored in 25 mM Tris.HCl, pH 7.3, 100 mM glycine, 10% glycerol at −20° C. Thiamet G and GlcNAcStatin were tested as reference compounds (Yuzwa et al. 2008 Nature Chemical Biology 4:483; Yuzwa et al. 2012 Nature Chemical Biology 8:393). The assay was performed in 200 mM Citrate/phosphate buffer supplemented with 0.005% Tween-20. 35.6 g Na2HPO42H2O (Sigma, #C0759) were dissolved in 1 L water to obtain a 200 mM solution. 19.2 g citric acid (Merck, #1.06580) was dissolved in 1 L water to obtain a 100 mM solution. pH of the sodiumphosphate solution was adjusted with the citric acid solution to 7.2. The buffer to stop the reaction consists of a 500 mM Carbonate buffer, pH 11.0. 734 mg FM-GlcNAc were dissolved in 5.48 mL DMSO to obtain a 250 mM solution and was stored at −20° C. OGA was used at a 2 nM concentration and FM-GlcNAc at a 100 uM final concentration. Dilutions were prepared in assay buffer.
# 50 nl of a compound dissolved in DMSO was dispensed on Black Proxiplate TM 384 Plus Assay plates (Perkin Elmer, #6008269) and 3 μl fl-OGA enzyme mix added subsequently. Plates were pre-incubated for 60 min at room temperature and then 2 μl FM-GlcNAc substrate mix added. […] Plates were briefly centrifuged for 1 min at 1000 rpm and incubate at room temperature for 6 h. To stop the reaction 5 μl STOP buffer were added and plates centrifuge again 1 min at 1000 rpm. Fluorescence was quantified in the Thermo Scientific Fluoroskan Ascent or the PerkinElmer EnVision with excitation wavelength 485 nm and emission wavelength 538 nm.
# For analysis a best-fit curve is fitted by a minimum sum of squares method. From this an IC50 value and Hill coefficient was obtained. High control (no inhibitor) and low control (saturating concentrations of standard inhibitor) were used to define the minimum and maximum values.
SMILES,Emax [1] [%],EC50 [1] [nM],Emax [2] [%],IC50 [2] [nM]
Cc1cc(OC[C@H]2CCCN(C(C)c3ccc4c(n3)OCCO4)C2)cc(C)n1 (mixture of isomers) [Product 19],86,31.6,102,7.94
Cc1cc(C[C@H]2CCCN(C(C)c3ccc4c(c3)OCC4)C2)cc(C)n1 (mixture of isomers) [Product 47],81,15.8,103,3.98
Cc1cc(C[C@H]2CCCN(C(C)c3ccc4c(c3)OCCN4C)C2)cc(C)n1 (mixture of isomers) [Product 49],,> 1000,103,126
Cc1cc(C[C@H]2CCCN(C(C)c3cnc4c(c3)OCCN4C)C2)cc(C)n1 (mixture of isomers) [Product 56],78,316,102,15.8
Cc1cc(C[C@H]2CCCN(C(C)c3cnc4c(c3)OCC4)C2)cc(C)n1 (mixture of isomers) [Product 57],78,158,101,12.6
Cc1cc(C[C@H]2CCCN(C(C)c3ccc4c(n3)OCC(=O)N4)C2)cc(C)n1 (mixture of isomers) [Product 59],23,> 1000,102,126
COc1cc(C[C@H]2CCCN(C(C)c3ccc4c(n3)OCCO4)C2)cc(C)n1 (mixture of isomers) [Product 63],69,31.6,101,7.94
Cc1cc(C[C@H]2CCCN(C(C)c3ccc4c(n3)OCCO4)C2)cc(OC(F)(F)F)n1 (mixture of isomers) [Product 67],89,79.4,102,7.94
Cc1cc(C[C@H]2CCCN(C(C)c3cc4c(cc3F)OCCO4)C2)cc(C(F)(F)F)n1 (mixture of isomers) [Product 68],79,39.8,102,6.31
Cc1cc(C[C@H]2CCCN(C(C)c3ccc4c(n3)OCCO4)C2)cc(C(F)(F)F)n1 (mixture of isomers) [Product 69],90,50.1,102,12.6
Cc1cc(CO[C@H]2CCCN([C@H](C)c3ccc4c(n3)OCCO4)C2)cc(C)n1 (mixture of isomers) [Product 111],29,316,98,12.6
Cc1cc(CO[C@@H]2CCCN([C@H](C)c3ccc4c(n3)OCCO4)C2)cc(C)n1 (mixture of isomers) [Product 112],8,> 1000,98,200
Cc1cc(C2CCCN([C@H](C)c3ccc4c(n3)OCCO4)C2)nc(C)n1 (mixture of isomers) [Product 113],55,794,100,100
Cc1cc(OC[C@H]2CCCN([C@H](C)c3ccc4c(n3)OCCO4)C2)nc(C)n1 (mixture of isomers) [Product 114],66,158,100,15.8
Cc1cc([C@H]2CCCN([C@@H](C)c3ccc4c(c3)OCC4)C2)cc(C)n1 (racemic) [Product 4],70,20,103,5.01
COc1cc(NC[C@H]2CCCN(C(C)c3ccc4c(n3)OCCO4)C2)cc(C)n1 (mixture of isomers) [Product 24],69,7.94,102,7.94
Cc1cc(C[C@H]2CCCN(C(C)c3cc4c(cc3F)OCCO4)C2)cc(C)n1 (mixture of isomers) [Product 40],96,15.8,101,2
Cc1cc(C[C@H]2CCCN(C(C)c3ccc4c(n3)OCCO4)C2)cc(C)n1 (mixture of isomers) [Product 44],91,20,101,3.16
